Reference: PMC6278556, “An Accurate and Effective Method for Measuring Osimertinib by UPLC-TOF-MS and Its Pharmacokinetic Study in Rats” (Molecules, 2018)
Like-named read-outs stand apart in the source and are kept apart here.

Experiments:
[1] = Pharmacokinetic study in SD rats after oral administration; type: in vivo; settings: n = 7, mean ± SD, non-compartmental
Protocol: The pharmacokinetic study of osimertinib was applied to seven male SD rats using oral administration by gavage and the dosage was 4.5 mg/kg. Osimertinib was diluted and suspended by 0.5% sodium carboxymethylcellulose. No less than 0.3 mL rat plasma was sampled at 0, 1, 2, 3, 4, 5, 6, 7, 8, 10, 12, 24, 36, and 48 h after oral administration through the oculi chorioideae vein under the condition of light ether anesthesia. After 10 min centrifuging of all analytes at 5000× g, the supernatant was collected and frozen at −40 °C until analysis. The use of animals in the presented study was permitted by the Ethics Committee of the Hebei Medical University, and all animal studies were carried out according to the Guidance for the Care and Use of Laboratory Animals of the US National Institute of Health.
Ten microliters of IS solution (500 ng/mL) was prepared in 100 μL rat plasma and vortex-mixed for 20 s. After that step, 500 μL of acetonitrile was added to precipitate the protein. Then, the mixture was vortexed for 1 min and centrifuged at 12,000 rpm for 10 min. The supernatant was transferred into a new Eppendorf tube and evaporated to dryness through nitrogen gas at 45 °C. After 100 μL of acetonitrile was added to reconstitute the residue and vortexed for 1 min, all samples were centrifuged at 12,000× g for 10 min. Finally, 80 μL of the supernatant was collected and injected into UPLC sample vials before use.
Dynamic background subtraction is a novel technique performed using the Analyst software (AB Sciex, Foster City, CA, USA). In addition, the data of the pharmacokinetic study of osimertinib were collected and calculated by the DAS 2.1.1 software in the non-compartmental mode (Mathematical Pharmacology Professional Committee of China, Shanghai, China).

[2] = Stability of osimertinib in rat plasma under various storage conditions; type: in vitro ADME
Protocol: The stabilities of this method, which include the freeze–thaw stability, autosampler stability, short-term stability and long-term stability, were evaluated through three QC samples after the sample preparation method. […] In addition, the long-term stability was evaluated through the determination of three QC samples that were kept at −80 °C for 30 days. All samples were considered stable with RSDs < ±15%.

[3] = stated without source; cited from earlier work
[4] = Sprague-Dawley (SD), rat, plasma, male SD rats, oral 4.5 mg/kg

- AUC(0-inf) [1, 4]: 0.426 ± 0.0817 µg·h/mL
- AUC(0-t) [1, 4]: 0.382 ± 0.069 µg·h/mL
- Cmax [1, 4]: 0.0285 ± 0.00397 µg/mL
- MRT [1, 4]: 14.5 ± 1.91 h
- Vd/F ([1]; Sprague-Dawley (SD), rat, plasma, male SD rats, oral 4.5 mg/kg, read-out: Vz/F (distribution volume)): 234 ± 66.7 L/kg
- half-life ([1]; Sprague-Dawley (SD), rat, plasma, male SD rats, oral 4.5 mg/kg, read-out: t1/2z (terminal half-life) (converted)): 15 ± 3.44 h
- CLz/F (clearance) ([1]; male SD rats, oral 4.5 mg/kg): 10.84 ± 1.94 L/h/kg
- tmax ([1]; male SD rats, oral 4.5 mg/kg, 4.5 mg/kg): 4.80 ± 1.10 h
- CL/F ([1]; male, Sprague-Dawley (SD), rat, plasma, po, 4.5 mg/kg, read-out: CLz/F (clearance) (converted)): ~10.8 L/h/kg
- tmax ([1]; male, Sprague-Dawley (SD), rat, plasma, po, 4.5 mg/kg, read-out: tmax): 4.5 h
- Stability in words ([2]; plasma samples, storage temperature (−80 °C) for at least 30 days): stable
- Stability in words ([2]; rat plasma, autosampler temperature (4 °C) for 24 h): good stability
- Stability in words ([2]; rat plasma, room temperature (25 °C) for 24 h): good stability
- Stability in words ([2]; rat plasma, three freeze (−80 °C) and thaw (0 °C) cycles): remained stable
SMILES: C=CC(=O)Nc1cc(Nc2nccc(-c3cn(C)c4ccccc34)n2)c(OC)cc1N(C)CCN(C)C [Osimertinib, N-(2-{2dimethylaminoethyl-methylamino}-4-methoxy-5-{[4-(1-methylindol-3-yl)pyrimidin-2yl]amino}phenyl)prop-2-enamide]
- pKa [3]: 13.64
